Test results as given in patent US6506772B1, “Substituted [1,2,4]triazolo[1,5a]pyridine derivatives with activity as adenosine receptor ligands” (Hoffmann-La Roche Inc., priority 2000, dated 2003).

What was measured:
[1] = target: T1, HA1 adenosine receptor (Homo sapiens, UniProt P30542); assay: Human adenosine A1 receptor affinity (Ki hA1); format: binding; details: affinity to human adenosine A1 receptor
T1 sequence (P30542 1-326): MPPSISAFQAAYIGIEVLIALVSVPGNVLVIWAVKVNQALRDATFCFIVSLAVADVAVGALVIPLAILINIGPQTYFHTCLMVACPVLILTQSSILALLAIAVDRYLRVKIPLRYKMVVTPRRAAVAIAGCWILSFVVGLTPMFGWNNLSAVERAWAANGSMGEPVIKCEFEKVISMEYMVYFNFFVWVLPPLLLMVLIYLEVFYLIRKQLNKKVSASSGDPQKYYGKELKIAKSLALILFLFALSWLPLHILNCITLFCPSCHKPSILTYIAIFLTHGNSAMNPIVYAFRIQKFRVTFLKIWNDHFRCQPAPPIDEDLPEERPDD

[2] = target: T2, human adenosine A2A receptor (Homo sapiens, UniProt P29274); assay: Human adenosine A2A receptor [3H]-SCH-58261 binding assay; details: for Ki: affinity to human adenosine A2A receptor, read-out: Ki HA2A; for selectivity (A1/A2a): calculated ratio of the affinity to the HA1 receptor to the HA2a receptor
T2 construct: expressed in transfected cells; host or cells: CHO cells, Semliki Forest virus expression system; membrane preparation
Description: Human Adenosine A2A Receptor
The human adenosine A2A receptor was recombinantly expressed in chinese hamster ovary (CHO) cells using the semliki forest virus expression system. Cells were harvested, washed twice by centrifugation, homogenized and again washed by centrifugation. The final washed membrane pellet was suspended in a Tris (50 mM) buffer containing 120 mM NaCl, 5 mM KCl, 2 mM CaCl2 and 10 MM MgCl2 (pH 7.4) (buffer A). […] Compounds were tested at 10 concentrations from 10 μM-0.3 nM. All assays were conducted in duplicate and repeated at least two times. Assay plates were incubated for 1 hour at room temperature before centrifugation and then bound ligand determined using a Packard Topcount scintillation counter. IC50 values were calculated using a non-linear curve fitting program and Ki values calculated using the Cheng-Prussoff equation.

T2 sequence (P29274 whole entry): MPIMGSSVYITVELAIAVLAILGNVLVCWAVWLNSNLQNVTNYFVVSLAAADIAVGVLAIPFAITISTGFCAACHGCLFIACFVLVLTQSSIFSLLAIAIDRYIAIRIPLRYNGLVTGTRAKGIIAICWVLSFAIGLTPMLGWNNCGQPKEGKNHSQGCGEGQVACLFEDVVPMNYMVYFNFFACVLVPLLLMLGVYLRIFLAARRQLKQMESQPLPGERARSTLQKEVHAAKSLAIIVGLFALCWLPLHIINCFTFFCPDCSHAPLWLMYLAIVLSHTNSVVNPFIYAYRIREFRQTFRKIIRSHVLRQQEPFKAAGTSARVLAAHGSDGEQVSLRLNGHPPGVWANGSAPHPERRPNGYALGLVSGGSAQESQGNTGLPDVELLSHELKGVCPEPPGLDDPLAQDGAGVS

| SMILES | Ki [1] | Ki [2] | selectivity (A1/A2a) [2] |
| --- | --- | --- | --- |
| COc1ccccc1CCNC(=O)c1cc(N)n2nc(-c3ccccn3)nc2c1 [Example 45, 5-Amino-2-pyridin-2-yl-[1,2,4]triazolo[1,5-a]pyridine-7-carboxylic acid [2-(2-methoxy-phenyl)-ethyl]-amide] | 0.128 µM | 0.0535 µM | 2.4 |
| Nc1cc(C(=O)NCc2ccccc2)cc2nc(-c3ccccn3)nn12 [Example 46, 5-Amino-2-pyridin-2-yl-[1,2,4]triazolo[1,5-a]pyridine-7-carboxylic acid benzylamide] | 0.184 µM | 0.0611 µM | 3.0 |
| CCCCCCNC(=O)c1cc(N)n2nc(-c3ccccn3)nc2c1 [Example 47, 5-Amino-2-pyridin-2-yl-[1,2,4]triazolo[1,5-a]pyridine-7-carboxylic acid hexylamide] | 0.316 µM | 0.0375 µM | 8.4 |
| Nc1cc(C(=O)NC2CCCCC2)cc2nc(-c3ccccn3)nn12 [Example 48, 5-Amino-2-pyridin-2-yl-[1,2,4]triazolo[1,5-a]pyridine-7-carboxylic acid cyclohexylamide] | 0.366 µM | 0.0621 µM | 5.9 |
| CCCCNC(=O)c1cc(N)n2nc(-c3ccccn3)nc2c1 [Example 49, 5-Amino-2-pyridin-2-yl-[1,2,4]triazolo[1,5-a]pyridine-7-carboxylic acid butylamide] | 0.242 µM | 0.0343 µM | 7.1 |
| Nc1cc(C(=O)NCCc2ccccc2Cl)cc2nc(-c3ccccn3)nn12 [Example 50, 5-Amino-2-pyridin-2-yl-[1,2,4]triazolo[1,5-a]pyridine-7-carboxylic acid [2-(2-chloro-phenyl)-ethyl]-amide] | 0.123 µM | 0.119 µM | 1.0 |
| COc1ccc(-c2nc3cc(C(=O)N(Cc4ccccc4)Cc4ccccc4)cc(N)n3n2)s1 [Example 51, 5-Amino-2-(5-methoxy-thiophen-2-yl)-[1,2,4]triazolo[1,5-a]pyridine-7-carboxylic acid dibenzylamide] | 0.129 µM | 0.0222 µM | 5.8 |
| COc1ccc(-c2nc3cc(C(=O)NCc4ccccc4Br)cc(N)n3n2)s1 [Example 52, 5-Amino-2-(5-methoxy-thiophen-2-yl)-[1,2,4]triazolo[1,5-a]pyridine-7-carboxylic acid 2-bromo-benzylamide] | 0.0857 µM | 0.108 µM | 0.8 |
| COc1ccc(-c2nc3cc(C(=O)N(Cc4ccccc4)C(C)C)cc(N)n3n2)s1 [Example 55, 5-Amino-2-(5-methoxy-thiophen-2-yl)-[1,2,4]triazolo[1,5-a]pyridine-7-carboxylic acid benzyl-isopropyl-amide] | 0.0764 µM | 0.0283 µM | 2.7 |
| COc1ccc(-c2nc3cc(C(=O)NCc4ccccc4Cl)cc(N)n3n2)s1 [Example 56, 5-Amino-2-(5-methoxy-thiophen-2-yl)-[1,2,4]triazolo[1,5-a]pyridine-7-carboxylic acid 2-chloro-benzylamide] | 0.0863 µM | 0.082 µM | 1.1 |
| COc1ccc(-c2nc3cc(C(=O)NCc4ccccc4OC)cc(N)n3n2)s1 [Example 58, 5-Amino-2-(5-methoxy-thiophen-2-yl)-[1,2,4]triazolo[1,5-a]pyridine-7-carboxylic acid 2-methoxy-benzylamide] | 0.0527 µM | 0.0719 µM | 0.7 |
| CCN(Cc1ccccc1)C(=O)c1cc(N)n2nc(-c3ccc(OC)s3)nc2c1 [Example 59, 5-Amino-2-(5-methoxy-thiophen-2-yl)-[1,2,4]triazolo[1,5-a]pyridine-7-carboxylic acid benzyl-ethyl-amide] | 0.106 µM | 0.0429 µM | 2.5 |
| COc1ccc(-c2nc3cc(C(=O)NCc4ccccc4)cc(N)n3n2)s1 [Example 62, 5-Amino-2-(5-methoxy-thiophen-2-yl)-[1,2,4]triazolo[1,5-a]pyridine-7-carboxylic acid benzylamide] | 0.113 µM | 0.176 µM | 0.6 |
| CCCCCCNC(=O)c1cc(N)n2nc(-c3ccc(OC)s3)nc2c1 [Example 63, 5-Amino-2-(5-methoxy-thiophen-2-yl)-[1,2,4]triazolo[1,5-a]pyridine-7-carboxylic acid hexylamide] | 0.247 µM | 0.181 µM | 1.4 |
| COc1ccc(-c2nc3cc(C(=O)NC4CCCCC4)cc(N)n3n2)s1 [Example 64, 5-Amino-2-(5-methoxy-thiophen-2-yl)-[1,2,4]triazolo[1,5-a]pyridine-7-carboxylic acid cyclohexylamide] | 0.223 µM | 0.227 µM | 1.0 |
| CCN(C(=O)c1cc(N)n2nc(-c3ccc(OC)s3)nc2c1)C(C)C [Example 65, 5-Amino-2-(5-methoxy-thiophen-2-yl)-[1,2,4]triazolo[1,5-a]pyridine-7-carboxylic acid ethyl-isopropyl-amide] | 0.211 µM | 0.0515 µM | 4.1 |
| COc1ccc(-c2nc3cc(C(=O)N4CCCCC4)cc(N)n3n2)s1 [Example 66, [5-Amino-2-(5-methoxy-thiophen-2-yl)-[1,2,4]triazolo[1,5-a]pyridin-7-yl]-piperidin-1-yl-methanone] | 0.623 µM | 0.174 µM | 3.6 |
| CCCCNC(=O)c1cc(N)n2nc(-c3ccc(OC)s3)nc2c1 [Example 67, 5-Amino-2-(5-methoxy-thiophen-2-yl)-[1,2,4]triazolo[1,5-a]pyridine-7-carboxylic acid butylamide] | 0.136 µM | 0.0991 µM | 1.4 |
| CCN(CC)C(=O)c1cc(N)n2nc(-c3ccc(OC)s3)nc2c1 [Example 68, 5-Amino-2-(5-methoxy-thiophen-2-yl)-[1,2,4]triazolo[1,5-a]pyridine-7-carboxylic acid diethylamide] | 0.717 µM | 0.171 µM | 4.2 |
| COc1ccc(-c2nc3cc(C(=O)NC4CCC4)cc(N)n3n2)s1 [Example 70, 5-Amino-2-(5-methoxy-thiophen-2-yl)-[1,2,4]triazolo[1,5-a]pyridine-7-carboxylic acid cyclobutylamide] | 0.148 µM | 0.113 µM | 1.3 |
| CCCNC(=O)c1cc(N)n2nc(-c3ccc(OC)s3)nc2c1 [Example 71, 5-Amino-2-(5-methoxy-thiophen-2-yl)-[1,2,4]triazolo[1,5-a]pyridine-7-carboxylic acid propylamide] | 0.18 µM | 0.0649 µM | 2.8 |
| CCCCN(Cc1ccccc1)C(=O)c1cc(N)n2nc(-c3ccc(OC)s3)nc2c1 [Example 73, 5-Amino-2-(5-methoxy-thiophen-2-yl)-[1,2,4]triazolo[1,5-a]pyridine-7-carboxylic acid benzyl-butyl-amide] | 0.136 µM | 0.0374 µM | 3.6 |
| COc1ccc(-c2nc3cc(C(=O)N(CCc4ccccc4)Cc4ccccc4)cc(N)n3n2)s1 [Example 75, 5-Amino-2-(5-methoxy-thiophen-2-yl)-[1,2,4]triazolo[1,5-a]pyridine-7-carboxylic acid benzyl-phenethyl-amide] | 0.0158 µM | 0.0266 µM | 0.6 |
